Test results taken from paper PMC6268188, “Comparative Studies of the (Anti) Mutagenicity of Baccharis dracunculifolia and Artepillin C by the Bacterial Reverse Mutation Test” (Molecules, 2012).
Where “and” joins values, the source holds several entries; their conditions need not be identical. Equal values may be shown once. Read-outs that look alike come from different tables or passages of the source. Marks after values point to notes of the source that are not given here.

Experiments:
S. typhimurium TA97a [1] = test system: S. typhimurium TA97a
S. typhimurium TA97a [2] = test system: S. typhimurium TA97a; remark: listed apart in the source
[3] = test system: mouse micronucleus and comet; design: method as in PMID 21259290; conditions: mouse micronucleus and comet assays; cited from earlier work
[4] = test system: DNA damage induced by methyl methanesulfonate and doxorubicin; conditions: micronucleus and comet assays; cited from earlier work
[5] = 0.69 µg/plate + AFB1 0.5 μg/plate, TA 100, + S9
[6] = 0.69 µg/plate + SA 1.25 μg/plate, TA 100, − S9
[7] = 1.37 µg/plate + AFB1 0.5 μg/plate, TA 100, + S9
[8] = 1.37 µg/plate + SA 1.25 μg/plate, TA 100, − S9
[9] = 2.75 µg/plate + AFB1 0.5 μg/plate, TA 100, + S9
[10] = 2.75 µg/plate + SA 1.25 μg/plate, TA 100, − S9
[11] = 5.49 µg/plate + AFB1 0.5 μg/plate, TA 100, + S9
[12] = 5.49 µg/plate + SA 1.25 μg/plate, TA 100, − S9
[13] = […] + SA 1.25 μg/plate, TA 100, − S9
[14] = 0.69 µg/plate + AA 1.25 μg/plate, TA 97a, + S9
[15] = 0.69 µg/plate + NOPD 10.0 μg/plate, TA 97a, − S9
[16] = 1.37 µg/plate + AA 1.25 μg/plate, TA 97a, + S9
[17] = 1.37 µg/plate + NOPD 10.0 μg/plate, TA 97a, − S9
[18] = 2.75 µg/plate + AA 1.25 μg/plate, TA 97a, + S9
[19] = 2.75 µg/plate + NOPD 10.0 μg/plate, TA 97a, − S9
[20] = 5.49 µg/plate + AA 1.25 μg/plate, TA 97a, + S9
[21] = 5.49 µg/plate + NOPD 10.0 μg/plate, TA 97a, − S9
[22] = […] + AA 1.25 μg/plate, TA 97a, + S9
[23] = […] + NOPD 10.0 μg/plate, TA 97a, − S9

## CC(C)=CCc1cc(/C=C/C(=O)O)cc(CC=C(C)C)c1O [ArtC, 3-{4-hydroxy-3,5-di(3-methyl-2-butenyl)phenyl}-2(E)-propenoic acid]
S. typhimurium TA97a [1]; 0.69 µg/plate, TA 97, − S9
  Number of revertants (M ± SD)/ plate: 207 ± 3 revertants/plate
S. typhimurium TA97a [1]; 1.37 µg/plate, TA 97, + S9
  MI (mutagenicity index): 1.1
  Number of revertants (M ± SD)/ plate: 174 ± 1 revertants/plate
S. typhimurium TA97a [1]; 1.37 µg/plate, TA 97, − S9
  MI (mutagenicity index): 1.5
  Number of revertants (M ± SD)/ plate: 221 ± 6 revertants/plate
S. typhimurium TA97a [1]; 2.75 µg/plate, TA 97, + S9
  MI (mutagenicity index): 1.1
  Number of revertants (M ± SD)/ plate: 175 ± 4 revertants/plate
S. typhimurium TA97a [1]; 2.75 µg/plate, TA 97, − S9
  MI (mutagenicity index): 1.6
  Number of revertants (M ± SD)/ plate: 246 ± 5 revertants/plate
S. typhimurium TA97a [1]; 5.49 µg/plate, TA 97, + S9
  MI (mutagenicity index): 1.1
  Number of revertants (M ± SD)/ plate: 175 ± 1 revertants/plate
S. typhimurium TA97a [1]; 5.49 µg/plate, TA 97, − S9
  MI (mutagenicity index): 1.4
  Number of revertants (M ± SD)/ plate: 207 ± 5 revertants/plate
S. typhimurium TA100
  % inhibition: 30 ** %
  Number of revertants (M ± SD)/ plate: 1885 ± 25 revertants/plate and 1507 ± 43 revertants/plate
  antimutagenic effect class: 30 ** (key: *: no antimutagenic effect (< 25% inhibition); **: moderate effect (25% - 40% inhibition); ***: strong antimutagenic effect (> 40% inhibition))
S. typhimurium TA100; [5]
  % inhibition: 26%
  Number of revertants (M ± SD)/ plate: 1595 ± 37 revertants/plate
S. typhimurium TA100; [6]
  % inhibition: 16%
  Number of revertants (M ± SD)/ plate: 1833 ± 48 revertants/plate
  antimutagenic effect class: * (no antimutagenic effect (< 25% inhibition))
S. typhimurium TA100; [7]
  % inhibition: 24%
  Number of revertants (M ± SD)/ plate: 1639 ± 33 revertants/plate
  antimutagenic effect class: * (no antimutagenic effect (< 25% inhibition))
S. typhimurium TA100; [8]
  % inhibition: 11%
  Number of revertants (M ± SD)/ plate: 1957 ± 36 revertants/plate
  antimutagenic effect class: * (no antimutagenic effect (< 25% inhibition))
S. typhimurium TA100; [9]
  % inhibition: 27%
  Number of revertants (M ± SD)/ plate: 1575 ± 11 revertants/plate
S. typhimurium TA100; [10]
  % inhibition: 17%
  Number of revertants (M ± SD)/ plate: 1813 ± 24 revertants/plate
  antimutagenic effect class: * (no antimutagenic effect (< 25% inhibition))
S. typhimurium TA100; [11]
  % inhibition: 26%
  Number of revertants (M ± SD)/ plate: 1600 ± 38 revertants/plate
S. typhimurium TA100; [12]
  % inhibition: 21%
  Number of revertants (M ± SD)/ plate: 1727 ± 39 revertants/plate
  antimutagenic effect class: * (no antimutagenic effect (< 25% inhibition))
S. typhimurium TA100; TA100, with metabolic activation, AFB1
  inhibition of AFB1-induced mutation (text; number = highest observed percent inhibition): did inhibit mutation
S. typhimurium TA100; [13]
  % inhibition: 14%
  antimutagenic effect class: * (no antimutagenic effect (< 25% inhibition))
S. typhimurium TA97a [2]
  Number of revertants (M ± SD)/ plate: 891 ± 17 revertants/plate and 1602 ± 17 revertants/plate
S. typhimurium TA97a [2]; [14]
  % inhibition: 14%
  Number of revertants (M ± SD)/ plate: 1603 ± 26 revertants/plate
  antimutagenic effect class: * (no antimutagenic effect (< 25% inhibition))
S. typhimurium TA97a [2]; [15]
  % inhibition: 21%
  Number of revertants (M ± SD)/ plate: 876 ± 8 revertants/plate
  antimutagenic effect class: * (no antimutagenic effect (< 25% inhibition))
S. typhimurium TA97a [2]; [16]
  % inhibition: 13%
  Number of revertants (M ± SD)/ plate: 1617 ± 16 revertants/plate
  antimutagenic effect class: * (no antimutagenic effect (< 25% inhibition))
S. typhimurium TA97a [2]; [17]
  % inhibition: 22%
  Number of revertants (M ± SD)/ plate: 862 ± 14 revertants/plate
  antimutagenic effect class: * (no antimutagenic effect (< 25% inhibition))
S. typhimurium TA97a [2]; [18]
  % inhibition: 10%
  Number of revertants (M ± SD)/ plate: 1669 ± 19 revertants/plate
  antimutagenic effect class: * (no antimutagenic effect (< 25% inhibition))
S. typhimurium TA97a [2]; [19]
  % inhibition: 20%
  Number of revertants (M ± SD)/ plate: 885 ± 19 revertants/plate
  antimutagenic effect class: * (no antimutagenic effect (< 25% inhibition))
S. typhimurium TA97a [2]; [20]
  % inhibition: 13%
  Number of revertants (M ± SD)/ plate: 1620 ± 21 revertants/plate
  antimutagenic effect class: * (no antimutagenic effect (< 25% inhibition))
S. typhimurium TA97a [2]; [21]
  % inhibition: 16%
  Number of revertants (M ± SD)/ plate: 933 ± 7 revertants/plate
  antimutagenic effect class: * (no antimutagenic effect (< 25% inhibition))
S. typhimurium TA97a [2]; TA97a, NOPD
  reduction of NOPD mutagenicity: no antimutagenic activity
S. typhimurium TA97a [2]; TA97a, with metabolic activation, AA
  reduction of AA mutagenicity: no antimutagenic activity
S. typhimurium TA97a [2]; [22]
  % inhibition: 14%
  antimutagenic effect class: * (no antimutagenic effect (< 25% inhibition))
S. typhimurium TA97a [2]; [23]
  % inhibition: 19%
  antimutagenic effect class: * (no antimutagenic effect (< 25% inhibition))
[3]
  genotoxic potential: not genotoxic
[4]
  protection against DNA damage: able to protect against DNA damage
